{"source": "patent US20120196899A1", "about": "“METHODS AND PRODUCTS FOR TREATING INFLAMMATION” (Rock Creek Pharmaceuticals, Inc., priority 2010, published 2012)", "key": {"nAChR α3/β4": {"molecular_target": "nAChR α3/β4 (Homo sapiens, UniProt P30926+P32297)", "sequence (P32297 32-505)": "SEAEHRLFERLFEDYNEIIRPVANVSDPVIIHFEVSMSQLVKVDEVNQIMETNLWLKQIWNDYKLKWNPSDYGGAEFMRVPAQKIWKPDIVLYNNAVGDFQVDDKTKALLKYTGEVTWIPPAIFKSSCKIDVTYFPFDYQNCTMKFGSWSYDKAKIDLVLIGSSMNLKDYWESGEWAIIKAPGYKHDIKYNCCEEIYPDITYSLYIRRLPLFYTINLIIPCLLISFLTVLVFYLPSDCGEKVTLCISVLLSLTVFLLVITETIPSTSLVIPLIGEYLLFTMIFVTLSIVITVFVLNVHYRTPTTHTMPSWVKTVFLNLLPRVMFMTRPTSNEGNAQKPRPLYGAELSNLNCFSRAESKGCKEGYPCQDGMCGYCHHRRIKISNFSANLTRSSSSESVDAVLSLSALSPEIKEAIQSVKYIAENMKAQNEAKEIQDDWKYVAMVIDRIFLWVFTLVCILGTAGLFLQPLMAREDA", "sequence (P30926 22-498)": "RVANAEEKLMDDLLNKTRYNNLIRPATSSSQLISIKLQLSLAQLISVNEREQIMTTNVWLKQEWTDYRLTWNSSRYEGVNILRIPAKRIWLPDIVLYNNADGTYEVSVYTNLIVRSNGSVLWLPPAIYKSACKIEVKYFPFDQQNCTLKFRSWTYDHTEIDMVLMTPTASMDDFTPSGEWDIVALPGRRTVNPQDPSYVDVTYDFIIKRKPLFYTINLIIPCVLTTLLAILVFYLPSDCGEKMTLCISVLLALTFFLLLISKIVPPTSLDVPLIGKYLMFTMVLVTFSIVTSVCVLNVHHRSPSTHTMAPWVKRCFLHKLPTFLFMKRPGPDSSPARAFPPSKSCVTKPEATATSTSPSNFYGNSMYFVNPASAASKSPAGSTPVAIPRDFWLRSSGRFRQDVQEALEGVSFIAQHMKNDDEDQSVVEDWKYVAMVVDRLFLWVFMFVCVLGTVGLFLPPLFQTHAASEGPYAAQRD", "conditions": "with 10 μM Ach (= 0%), 10 μM Ach + 1 μM epibatidine = 100%", "procedure": "HEK293 or CHO cells were transiently or stably transfected with the appropriate human ion channel cDNAs. Stable transfectants were selected by coexpression with the antibiotic-resistance gene(s) incorporated into the expression plasmid(s). Selection pressure was maintained by including selection antibiotics in the culture medium. HEK293 cells were cultured in Dulbecco's Modified Eagle Medium/Nutrient Mixture F-12 (D-MEM/F-12) supplemented with 10% fetal bovine serum, 100 U/mL penicillin G sodium, 100 g/mL streptomycin sulfate and appropriate selection antibiotics. CHO cells were cultured in Ham's F-12 supplemented with 10% fetal bovine serum, 100 U/mL penicillin G sodium, 100 g/mL streptomycin sulfate and appropriate selection antibiotics.\nFor FLIPR TETRA™ assay, cells were plated in 384-well black wall, flat clear bottom microtiter plates (Type: BD Biocoat Poly-D-Lysine Multiwell Cell Culture Plate) at 20,000 to 30,000 cells per well (384-well plate). Cells were incubated at 37° C. overnight or until the cells reached a sufficient density in the wells (near confluent monolayer) to use in fluorescence assays. For α4β2 assay, cells were incubated at 27° C. for at least 7 hours before use.\nExperiments were performed with either the FLIPR calcium sensitive dye kit (Fluo-8, ABDbioquest, for nAChR α3/β4 and nAChR α7) or FLIPR membrane potential kit (Molecular Devices, for nAChR α4/β2) according to the manufacturer's instructions. Briefly, cells were incubated with 201 dye for 30 min at 37° C. After dye loading period, for the agonist assay, 5 μl of the test, vehicle, or control articles at concentration of 5 times of final concentration were applied to the cells without stimulation. For the positive allosteric modulation (PAM) and antagonist assay, after test article application, the cells were stimulated with either low dose (for PAM) or high dose (for antagonist) of Ach.\nThe signal elicited in the presence of the positive control agonist and allosteric modulator (10 μM Ach+1 μM epibatidine) was set to 100% and the signal from the agonist control (10 μM Ach) was set to 0%."}, "nAChR α7": {"molecular_target": "T1, nAChR α7 (Homo sapiens, UniProt P36544)", "T1 construct": "host or cells: CHO cells", "T1 sequence (P36544 23-502)": "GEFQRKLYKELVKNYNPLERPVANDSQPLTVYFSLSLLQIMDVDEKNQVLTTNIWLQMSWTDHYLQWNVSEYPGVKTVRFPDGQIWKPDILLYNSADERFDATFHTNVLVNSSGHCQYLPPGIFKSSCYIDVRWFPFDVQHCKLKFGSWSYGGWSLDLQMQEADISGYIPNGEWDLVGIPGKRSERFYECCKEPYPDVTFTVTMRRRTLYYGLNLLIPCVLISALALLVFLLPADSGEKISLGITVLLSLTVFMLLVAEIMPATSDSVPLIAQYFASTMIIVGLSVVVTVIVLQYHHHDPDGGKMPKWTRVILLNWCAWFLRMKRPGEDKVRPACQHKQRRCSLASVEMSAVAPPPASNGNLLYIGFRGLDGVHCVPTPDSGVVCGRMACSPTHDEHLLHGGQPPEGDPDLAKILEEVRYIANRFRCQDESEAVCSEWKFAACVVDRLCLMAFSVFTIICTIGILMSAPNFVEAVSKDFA", "assay": "nAChR α7 channel agonist assay (FLIPR, with PNU-120596)", "type": "cell-based", "conditions": "in presence of PNU-120596, 30 μM Ach + 10 μM PNU-120596 = 100%, HBPS = 0%", "description": "Therefore, the assay of agonist activity for either Ach or for the test articles was conducted in the presence of the positive allosteric modulator."}}, "note": "Read-outs that look alike come from different tables or passages of the source.", "data": [{"smiles": "C1=CCC(c2cccnc2)NC1", "note": "(racemic) [Anatabine (racemate)]", "values": [{"measurement": "Normalized % Potentiation", "setting": "nAChR α3/β4; test conc 0.3 μM", "result": "−1.98", "unit": "%"}, {"measurement": "Normalized % Potentiation", "setting": "nAChR α3/β4; test conc 1 μM", "result": "−4.08", "unit": "%"}, {"measurement": "Normalized % Potentiation", "setting": "nAChR α3/β4; test conc 3 μM", "result": "−2.88", "unit": "%"}, {"measurement": "Normalized % Potentiation", "setting": "nAChR α3/β4; test conc 10 μM", "result": "−3.20", "unit": "%"}, {"measurement": "Normalized % Potentiation", "setting": "nAChR α3/β4; test conc 30 μM", "result": "−8.50", "unit": "%"}, {"measurement": "Normalized % Potentiation", "setting": "nAChR α3/β4; test conc 100 μM", "result": "−9.46", "unit": "%"}, {"measurement": "Normalized % Potentiation", "setting": "nAChR α3/β4; test conc 300 μM", "result": "−9.38", "unit": "%"}, {"measurement": "Normalized % Potentiation", "setting": "nAChR α3/β4; test conc 1000 μM", "result": "−9.17", "unit": "%"}, {"measurement": "Normalized % Activation", "setting": "nAChR α7; test conc 0.3 μM", "result": "−1.81", "unit": "%"}, {"measurement": "Normalized % Activation", "setting": "nAChR α7; test conc 1 μM", "result": 0.34, "unit": "%"}, {"measurement": "Normalized % Activation", "setting": "nAChR α7; test conc 3 μM", "result": 0.78, "unit": "%"}, {"measurement": "Normalized % Activation", "setting": "nAChR α7; test conc 10 μM", "result": 1.65, "unit": "%"}, {"measurement": "Normalized % Activation", "setting": "nAChR α7; test conc 30 μM", "result": 2.27, "unit": "%"}, {"measurement": "Normalized % Activation", "setting": "nAChR α7; test conc 100 μM", "result": 5.69, "unit": "%"}, {"measurement": "Normalized % Activation", "setting": "nAChR α7; test conc 300 μM", "result": 14.45, "unit": "%"}, {"measurement": "Normalized % Activation", "setting": "nAChR α7; test conc 1000 μM", "result": 60.41, "unit": "%"}]}]}
